Laboratory results taken from patent publication US8642632B2, “Selective androgen receptor modulators” (Radius Health, Inc., priority 2010, dated 2014).

Test system: castrated rat
Experiment: In vivo rat model of androgen and anabolic activity - rat Herschberger assay
Conditions: 3 mg/kg orally, once daily for 4 days, compared with Sham and testosterone propionate (TP) controls
Text: Organ and muscle weight is on Y-axis and the numbers refer to weight in milligrams. *ρ<0.05 compared to vehicle. ^ρ<0.05 compared to TP and sham.
The following is a typical procedure of the in vivo evaluation of the selective androgens of this invention. In particular, this assay looks primarily at the ability of the selective androgens of this invention to increase muscle size in an immature, castrated rat. In addition, androgenic effects are looked at primarily by weighing the prostate and seminal vesicles. Selective compounds will show a greater increase in the levator ani relative to the prostate and seminal vesicles when compared to testosterone treated, castrated animals or to intact animals that have not been treated. Immature Sprague Dawley male rats were obtained Charles River Laboratories (Stoneridge, N.Y.). All animals were maintained in a temperature and humidity controlled room with a 12 hr light: 12 hr dark cycle, with ad lib access to food (TD 291615, Teklad, Madison, Wis.) and water. Rats were anesthetized and orchidectomized (GDX) or sham surgery (SHAM) was performed. […] The prostate, seminal vesicle and levator ani and bulba cavernous (LABC) tissues were removed, weighed and recorded. Body weights were recorded for each animal at baseline and at sacrifice.

SMILES	levator ani muscle (LABC) weight
Cc1c(N[C@@H](c2nnc(-c3ccc(F)cc3)o2)C(C)(C)O)ccc(C#N)c1Cl [Example 5, (R)-2-chloro-4-(1-(5-(4-fluorophenyl)-1,3,4-oxadiazol-2-yl)-2-hydroxy-2-methylpropylamino)-3-methylbenzonitrile]	significantly above the non-castrated control (Sham) and testosterone propionate-treated (TP) controls

Biological target: T1, androgen receptor (Rattus norvegicus, UniProt P15207)
T1 construct: purchased Invitrogen, Madison, Wis
T1 sequence (P15207 651-902 limits assumed): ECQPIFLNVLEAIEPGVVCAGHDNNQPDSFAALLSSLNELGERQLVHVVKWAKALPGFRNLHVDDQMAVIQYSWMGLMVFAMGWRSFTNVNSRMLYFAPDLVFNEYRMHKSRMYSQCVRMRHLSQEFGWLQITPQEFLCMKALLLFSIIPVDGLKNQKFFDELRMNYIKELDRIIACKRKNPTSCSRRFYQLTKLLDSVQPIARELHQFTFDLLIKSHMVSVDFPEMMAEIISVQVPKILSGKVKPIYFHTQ
Experiment: androgen receptor binding assay (fluorescence polarization, Invitrogen AR-Fluormone)
Conditions: not given
Protocol: The assay was performed as specified by the manufacturer (Invitrogen, Madison, Wis.). Briefly, 1 μl of 10 mM compound was added to 500 μl of AR screening buffer in a 1.5 ml eppendorf tube to make a 2×10^−5M stock. 10-fold serial dilutions of the test compounds were prepared ranging in concentration from 10^−5M to 10^−12M. Each dilution was added in triplicate to a black 384-microtiter plate. The test compounds will be diluted 2-fold in the final reaction. 2×AR-Fluormone™ complex was prepared with 2 nM Flourmone AL Green™ and 30 nM AR. 25 μl of 2× complex was aliquoted to each reaction well, such that the final reaction volume was 50 μl per well. Plate was sealed with a foil cover and incubated in the dark at room temperature for 4 h. Polarization values for each well were measured. The polarization values were plotted against the concentration of the test compound. The concentration of the test compound that results in half-maximum shift equals the IC50 of the test compound. As a control, a competition curve for R1881 (methyltrienolone) was performed for each assay. Curve Fitting was performed using GraphPad Prism® software from GraphPad™ Software Inc. Binding data are reported as a single determination if the experiment was run once only and as the average of experiments if the binding experiment was performed two or more times with that compound.
The binding data shown in table 1 (below) is from the result of a single or multiple determinations based on the same compound. Where multiple data points have been taken, the value reported is the average of the multiple determinations.

SMILES	IC50 [nM]
CC(C)(O)[C@@H](Nc1ccc(C#N)c(C(F)(F)F)c1)c1nnc(-c2ccc(F)cc2)o1 [Example 1, (R)-4-(1-(5-(4-fluorophenyl)-1,3,4-oxadiazol-2-yl)-2-hydroxy-2-methylpropylamino)-2-(trifluoromethyl)benzonitrile]	> 1000
Cc1c(N[C@@H](c2nnc(-c3ccc(C#N)cc3)o2)[C@H](O)C(F)(F)F)ccc(C#N)c1Cl [Example 7, 2-chloro-4-((1R,2S)-1-(5-(4-cyanophenyl)-1,3,4-oxadiazol-2-yl)-3,3,3-trifluoro-2-hydroxypropylamino)-3-methylbenzonitrile]	290
CCCc1c(N[C@@H](c2nnc(-c3ccc(C#N)cc3)o2)[C@H](C)O)ccc(C#N)c1Cl [Example 4, 2-Chloro-4-((1R,2S)-1-(5-(4-cyanophenyl)-1,3,4-oxadiazol-2-yl)-2-hydroxypropylamino)-3-propylbenzonitrile]	0.3
Cc1c(N[C@@H](c2nnc(-c3ccc(F)cc3)o2)C(C)(C)O)ccc(C#N)c1C(F)(F)F [Example 2, (R)-4-(1-(5-(4-fluorophenyl)-1,3,4-oxadiazol-2-yl)-2-hydroxy-2-methylpropylamino)-3-methyl-2-(trifluoromethyl)benzonitrile]	40
Cc1c(N[C@@H](c2nnc(-c3ccc(C#N)cc3)o2)C(C)(C)O)ccc(C#N)c1Cl [Example 6, (R)-2-chloro-4-(1-(5-(4-cyanophenyl)-1,3,4-oxadiazol-2-yl)-2-hydroxy-2-methylpropylamino)-3-methylbenzonitrile]	4
Cc1c(N[C@@H](c2nnc(-c3ccc(C#N)cc3)o2)C(C)(C)O)ccc(C#N)c1C(F)(F)F [Example 3, (R)-4-(1-(5-(4-cyanophenyl)-1,3,4-oxadiazol-2-yl)-2-hydroxy-2-methylpropylamino)-3-methyl-2-(trifluoromethyl)benzonitrile]	30
Cc1c(N[C@@H](c2nnc(-c3ccc(F)cc3)o2)C(C)(C)O)ccc(C#N)c1Cl [Example 5, (R)-2-chloro-4-(1-(5-(4-fluorophenyl)-1,3,4-oxadiazol-2-yl)-2-hydroxy-2-methylpropylamino)-3-methylbenzonitrile]	6
